Measurements from patent publication US12365674B2, “Inhibitors of histone deacetylase useful for the treatment or prevention of HIV infection” (Merck Sharp & Dohme LLC, priority 2019, dated 2025).
Read-outs that look alike come from different tables or passages of the source.

System: KARN cells (Jurkat 2C4)
Experiment: KARN assay (luciferase induction in latently HIV-infected Jurkat 2C4 cells)
Assay type: cell-based
Conditions: ~20 hr, luciferase induction relative to 2 μM SAHA (100%)
Experimental: KARN cells (Jurkat 2C4) were licensed from the laboratory of Dr. John Karn, Case Western Reserve University, School of Medicine. The details regarding this cell line are published (Pearson, R., Kin, Y. K., Hokello, J., Lassen, K., Friedman, J., Tyagi, M., Karn, J., 2008, J. Virol. 82:12291-12303). The cells were grown in a T175 flask (Thermo Fisher, catalog number 159910) in RPMI 1640 containing L-glutamine and phenol red (Life Technologies, catalog number 11875-085), 5% heat inactivated fetal bovine serum (FBS; Life Technologies, catalog number 10100-147) and 100 μg/ml Penicillin-Streptomycin (Life Technologies, catalog number 15140-122) at 37° C. An atmosphere of 5% CO2 and 90% humidity was used for all culture work. Cells were split and reseeded into T175 flasks at a density of 0.2×10^6 cells/ml, in 40 ml of media, every 3-4 days.
Day 1: After the 3-4 day growth period, the cells were transferred from the T175 flask to a 50 ml conical tube and gently pelleted at 1000 rpm for 5 minutes. The supernatant was removed and the cells gently resuspended in assay media RPMI 1640 medium containing L-glutamine but without Phenol Red (Life Technologies, catalog number 11835-030), 5% FBS and 100 μg/ml Penicillin-Streptomycin, and then reseeded such that the original flask is now divided into two T175 flasks. These flasks were returned to the incubator.
Day 2: Cell Preparation: The next day, the cells were transferred from each T175 flask to an individual 50 ml conical tube and gently pelleted at 1000 rpm for 5 minutes. The cells were gently resuspended in assay media (30 ml) and pelleted again. The cell pellets were each resuspended in 30 ml of RPMI 1640 medium containing L-glutamine but without Phenol Red, 100 μg/ml Penicillin-Streptomycin and containing either 0.1% or 5% normal human serum (NHS; Biospecialty, Colmar, PA, catalog number 115-00 Anticoagulant free). The cells were counted using the ViCell (Beckman Coulter, Brea, CA) and diluted as necessary. A Multidrop (Combi, Thermo Scientific, Waltham, MA) with a sterile head was used to seed the cells into the wells of a 384-well solid black plate with lid (Perkin Elmer, Waltham, MA, catalog number 6007660) at 4000 cells/30 μl/well for the 5% NHS assay media and 6000 cells/30 μl/well for 0.1% NHS assay. The plates were covered and returned to the incubator prior to compound addition.
Compound Preparation: Solutions of control inhibitor suberoylanilide hydroxamic acid (SAHA; Sigma, catalog number SML0061) and test compounds in 100% DMSO were titrated into 384-well polypropylene plates (Labcyte, San Jose, CA, catalog number P-05525) using a 20-point dose response and 2-fold dilutions. The reference compounds, DMSO and SAHA were then added to the compound plate. Using the Access system (Labcyte), 120 nl of these inhibitor and control solutions were added to the individual wells of the plates containing the cells, and the plates were then returned to the incubator for ˜20 hr (range from 18-24 hr). The final high concentration for SAHA and the test compounds in the assays was 40 μM. The final DMSO concentration in all wells was 0.4%. The minimal induction reference compound used was DMSO and the maximal induction reference compound used was SAHA (2 μM final concentration in the assay).
Day 3: The luciferase detection reagent was prepared by transferring the contents of one bottle of Steady-Glo buffer to one bottle of Steady-Glo substrate (Steady-Glo Luciferase Assay System, Promega, Madison, […], catalog number E2520), followed by gently mixing until the substrate was thoroughly dissolved and the solution was equilibrated to room temperature. The cell culture assay plates were removed from the incubator and brought to room temperature (15 min). The Steady-Glo Reagent was added to the plates (30 μl/well), which were then covered with a black lid and incubated for 10 minutes at room temperature. […]

[1] = 0.1% normal human serum, 6000 cells/well, read-out: Karn 0.1% NHS
[2] = 5% normal human serum, 4000 cells/well, read-out: Karn 5% NHS

Structure (SMILES): COc1nc2ccccc2cc1-c1cnc([C@@H](N)COCCCC(=O)c2ncco2)[nH]1 [Compound 1, (R)-4-(2-amino-2-(5-(2-methoxyquinolin-3-yl)-1H-imidazol-2-yl)ethoxy)-1-(oxazol-2-yl)butan-1-one]
- EC50 [1]: 11700 nM

Structure (SMILES): CCC(=O)CCCOC[C@H](NC(=O)C12CCN(CC1)CC2)c1ncc(-c2cc3ccccc3nc2OC)[nH]1 [Compound 6, N-{(1R)-1-[5-(2-methoxyquinolin-3-yl)-1H-imidazol-2-yl]-2-[(4-oxohexyl)oxy]ethyl}-1-azabicyclo[2.2.2]octane-4-carboxamide]
- EC50 [1]: 8970 nM
- EC50 [2]: 14500 nM

Structure (SMILES): CCC(=O)CCCOC[C@H](NC(=O)[C@H]1CC12CCN(CC)CC2)c1ncc(-c2cc3ccccc3nc2OC)[nH]1 [Compound 7, (1S)-6-ethyl-N-{(1R)-1-[5-(2-methoxyquinolin-3-yl)-1H-imidazol-2-yl]-2-[(4-oxohexyl)oxy]ethyl}-6-azaspiro[2.5]octane-1-carboxamide]
- EC50 [1]: 2350 nM
- EC50 [2]: 3500 nM

Structure (SMILES): CNC(=O)C(=O)CCCOC[C@H](NC(=O)c1cncs1)c1ncc(-c2cc3ccccc3nc2OC)[nH]1 [Compound 8, N-[(1R)-1-[5-(2-methoxyquinolin-3-yl)-1H-imidazol-2-yl]-2-{[5-(methylamino)-4,5-dioxopentyl]oxy}ethyl]-1,3-thiazole-5-carboxamide]
- EC50 [1]: 80.2 nM
- EC50 [2]: 408 nM

Structure (SMILES): CNC(=O)C(=O)CCCOC[C@H](NC(=O)C12CCN(CC1)CC2)c1ncc(-c2cc3ccccc3nc2OC)[nH]1 [Compound 9, N-[(1R)-1-[5-(2-methoxyquinolin-3-yl)-1H-imidazol-2-yl]-2-{[5-(methylamino)-4,5-dioxopentyl]oxy}ethyl]-1-azabicyclo[2.2.2]octane-4-carboxamide]
- EC50 [1]: 232 nM
- EC50 [2]: 466 nM

Structure (SMILES): COc1nc2ccccc2cc1-c1cnc([C@H](COCCCC(=O)c2ncco2)NC(=O)c2cncs2)[nH]1 [Compound 10, N-{(1R)-1-[5-(2-methoxyquinolin-3-yl)-1H-imidazol-2-yl]-2-[4-(1,3-oxazol-2-yl)-4-oxobutoxy]ethyl}-1,3-thiazole-5-carboxamide]
- EC50 [1]: 295 nM
- EC50 [2]: 1500 nM

Structure (SMILES): COc1nc2ccccc2cc1-c1cnc([C@H](COCCCC(=O)c2ncco2)NC(=O)[C@H]2CC23CCN(C)CC3)[nH]1 [Compound 11, (1S)-N-{(1R)-1-[5-(2-methoxyquinolin-3-yl)-1H-imidazol-2-yl]-2-[4-(1,3-oxazol-2-yl)-4-oxobutoxy]ethyl}-6-methyl-6-azaspiro[2.5]octane-1-carboxamide]
- EC50 [1]: 59.8 nM
- EC50 [2]: 218 nM

Structure (SMILES): COc1nc2ccccc2cc1-c1cnc([C@H](COCCCC(=O)c2ncco2)NC(=O)C23CCN(CC2)CC3)[nH]1 [Compound 12, N-{(1R)-1-[5-(2-methoxyquinolin-3-yl)-1H-imidazol-2-yl]-2-[4-(1,3-oxazol-2-yl)-4-oxobutoxy]ethyl}-1-azabicyclo[2.2.2]octane-4-carboxamide]
- EC50 [1]: 252 nM
- EC50 [2]: 562 nM

Structure (SMILES): COc1nc2ccccc2cc1-c1cnc([C@H](COCCCC(=O)c2ncco2)NC(=O)CN(C)C)[nH]1 [Compound 13, N-{(1R)-1-[5-(2-methoxyquinolin-3-yl)-1H-imidazol-2-yl]-2-[4-(1,3-oxazol-2-yl)-4-oxobutoxy]ethyl}-N~2~,N~2~- dimethylglycinamide]
- EC50 [1]: 424 nM
- EC50 [2]: 854 nM

Structure (SMILES): COc1nc2ccccc2cc1-c1cnc([C@H](COCCCC(=O)c2ccon2)NC(=O)CN(C)C)[nH]1 [Compound 14, N-{(1R)-2-(4-isoxazol-3-yl-4-oxobutoxy)-1-[5-(2-methoxyquinolin-3-yl)-1H-imidazol-2-yl]ethyl}-N~2~,N~2~- dimethylglycinamide]
- EC50 [1]: 83.8 nM
- EC50 [2]: 252 nM

Structure (SMILES): CN1CC(C(=O)N[C@@H](COCCCC(=O)c2ccon2)c2ncc(-c3ccccc3F)[nH]2)C1 [Compound 15, N-[(1R)-1-[5-(2-fluorophenyl)-1H-imidazol-2-yl]-2-(4-isoxazol-3-yl-4-oxobutoxy)ethyl]-1-methylazetidine-3-carboxamide]
- EC50 [1]: 539 nM
- EC50 [2]: 548 nM

Structure (SMILES): CN1CC(C(=O)N[C@@H](COCCCC(=O)c2ccon2)c2[nH]c(-c3ccc(F)cc3)nc2Cl)C1 [Compound 16, N-[(1R)-1-[4-chloro-2-(4-fluorophenyl)-1H-imidazol-5-yl]-2-(4-isoxazol-3-yl-4-oxobutoxy)ethyl]-1-methylazetidine-3-carboxamide]
- EC50 [1]: 979 nM
- EC50 [2]: 1100 nM

Structure (SMILES): CN(C)CC(=O)N[C@@H](COCCCC(=O)c1ccon1)c1[nH]c(-c2ccc(F)cc2)nc1Cl [Compound 17, N-[(1R)-1-[4-chloro-2-(4-fluorophenyl)-1H-imidazol-5-yl]-2-(4-isoxazol-3-yl-4-oxobutoxy)ethyl]-N~2~,N~2~- dimethylglycinamide]
- EC50 [1]: 1490 nM
- EC50 [2]: 2420 nM

Structure (SMILES): CN1CCC2(CC1)C[C@@H]2C(=O)N[C@@H](COCCCC(=O)c1ccon1)c1[nH]c(-c2ccc(F)cc2)nc1Cl [Compound 18, (1S)-N-[(1R)-1-[4-chloro-2-(4-fluorophenyl)-1H-imidazol-5-yl]-2-(4-isoxazol-3-yl-4-oxobutoxy)ethyl]-6-methyl-6-azaspiro[2.5]octane-1-carboxamide]
- EC50 [1]: 77.7 nM
- EC50 [2]: 109 nM

Structure (SMILES): COc1cc2nc(C)ccc2cc1-c1cnc([C@H](COCCCC(=O)c2cc(C)on2)NC(=O)C2CN(C)C2)[nH]1 [Compound 19, N-{(1R)-1-[5-(7-methoxy-2-methylquinolin-6-yl)-1H-imidazol-2-yl]-2-[4-(5-methylisoxazol-3-yl)-4-oxobutoxy]ethyl}-1-methylazetidine-3-carboxamide]
- EC50 [1]: 374 nM
- EC50 [2]: 449 nM

Structure (SMILES): COc1cc2nc(C)ccc2cc1-c1cnc([C@H](COCCCC(=O)c2cc(C)on2)NC(=O)[C@H]2CC23CCN(C)CC3)[nH]1 [Compound 20, (1S)-N-{(1R)-1-[5-(7-methoxy-2-methylquinolin-6-yl)-1H-imidazol-2-yl]-2-[4-(5-methylisoxazol-3-yl)-4-oxobutoxy]ethyl}-6-methyl-6-azaspiro[2.5]octane-1-carboxamide]
- EC50 [1]: 40.5 nM
- EC50 [2]: 55.1 nM

Structure (SMILES): Cc1ccc2cc(-c3cnc([C@H](CSCCCC(=O)c4ncco4)NC(=O)[C@H]4CC45CCN(C)CC5)[nH]3)ccc2n1 [Compound 21, (1S)-6-methyl-N-[(1R)-1-[5-(2-methylquinolin-6-yl)-1H-imidazol-2-yl]-2-{[4-(1,3-oxazol-2-yl)-4-oxobutyl]sulfanyl}ethyl]-6-azaspiro[2.5]octane-1-carboxamide]
- EC50 [1]: 60.7 nM
- EC50 [2]: 64.4 nM
